Values quoted from earlier work in patent publication US6156340A, “Orally administrable time release drug containing products” (Duquesne University of the Holy Ghost, priority 1996, dated 2000).

Assays:
[1] = not given; remark: listed apart in the source
[2] = repeated oral administration, long term therapy

For `O=C(O)Cc1ccccc1Nc1c(Cl)cccc1Cl` [diclofenac sodium], the “water solubility” value is listed as “high water solubility”, the “absorption” value ([1]; following oral administration) is listed as “completely absorbed” and the “metabolism” value ([1]; in vivo) is listed as “extensive metabolism”. For the same compound, the “elimination half-life in plasma” value ([1]; plasma) was “relatively short elimination half-life in plasma” and the “side effects” value [2] was “frequently causes gastrointestinal disturbances and may cause kidney failure”.
